One data set concerns Human immunodeficiency virus 1. Put plainly: Antiviral activity against HIV1 harboring L100I mutant infected in human MT4 cells assessed as protection against virus-induced cytopathicity. It is filed as functional, organism-based. To be noted: Human immunodeficiency virus 1, MT4.
For `Cc1ccc(Sc2c(C3CC3)c(=O)[nH]c(=O)n2COCc2ccccc2)c(C)c1`, the EC50 turned out to be 4.75 µM.
The same measure, in the same setting: in the case of `O=c1[nH]c(=O)n(COCc2ccccc2)c(Sc2ccc(Br)cc2)c1C1CC1` it was 4.05 µM; in that of `COc1ccccc1Sc1c(C2CC2)c(=O)[nH]c(=O)n1COCc1ccccc1`, 0.61 µM; in that of `O=c1[nH]c(=O)n(COCc2ccccc2)c(Sc2ccccc2Br)c1C1CC1`, 0.54 µM.
Same read-out and setting: then `Cc1ccccc1Sc1c(C2CC2)c(=O)[nH]c(=O)n1COCc1ccccc1`, with 1.07 µM; and `O=c1[nH]c(=O)n(COCc2ccccc2)c(Sc2cc(Cl)cc(Cl)c2)c1C1CC1`, with 0.4 µM.
The same measure, in the same setting: then `O=c1[nH]c(=O)n(COCc2ccccc2)c(Sc2ccc(Cl)cc2Cl)c1C1CC1`, with 4.43 µM; and `O=c1[nH]c(=O)n(COCc2ccccc2)c(Sc2ccc(Cl)cc2)c1C1CC1`, with 4.48 µM.

In another data set the test system is Human immunodeficiency virus 1. Put plainly: Antiviral activity against wild type HIV1 IIIB infected in human MT4 cells assessed as protection against virus-induced cytopathicity. As to conditions: Human immunodeficiency virus 1, IIIB. The class given is functional, organism-based.
As to `Cc1ccc(Sc2c(C3CC3)c(=O)[nH]c(=O)n2COCc2ccccc2)c(C)c1`, the EC50 is 4.75 µM.
Same read-out and setting: in the case of `O=c1[nH]c(=O)n(COCc2ccccc2)c(Sc2ccc(Br)cc2)c1C1CC1` it was 6.18 µM.
Same read-out and setting: then `COc1ccccc1Sc1c(C2CC2)c(=O)[nH]c(=O)n1COCc1ccccc1`, with 0.17 µM; and `O=c1[nH]c(=O)n(COCc2ccccc2)c(Sc2ccccc2Br)c1C1CC1`, with 0.15 µM.
Same read-out and setting: in the case of `Cc1ccccc1Sc1c(C2CC2)c(=O)[nH]c(=O)n1COCc1ccccc1` it was 0.15 µM; in that of `O=c1[nH]c(=O)n(COCc2ccccc2)c(Sc2cc(Cl)cc(Cl)c2)c1C1CC1`, 0.073 µM.
As for `O=c1[nH]c(=O)n(COCc2ccccc2)c(Sc2ccc(Cl)cc2Cl)c1C1CC1`, the EC50 is 5.3 µM.
As to `O=c1[nH]c(=O)n(COCc2ccccc2)c(Sc2ccc(Cl)cc2)c1C1CC1`, the EC50 was determined as 4.46 µM.

Test system in a further data set: not listed separately
In words: Cytotoxicity against human MT4 cells assessed as reduction in cell viability. The class given is toxicity, cell-based.
Conditions: not given
Take `Cc1ccc(Sc2c(C3CC3)c(=O)[nH]c(=O)n2COCc2ccccc2)c(C)c1`: the CC50 came to 32.2 µM.
The same measure, in the same setting: in the case of `O=c1[nH]c(=O)n(COCc2ccccc2)c(Sc2ccc(Br)cc2)c1C1CC1` it was 25.9 µM.
On the same count and under the same terms, then `COc1ccccc1Sc1c(C2CC2)c(=O)[nH]c(=O)n1COCc1ccccc1`, with 33.6 µM; and `O=c1[nH]c(=O)n(COCc2ccccc2)c(Sc2ccccc2Br)c1C1CC1`, with 27.2 µM; and `Cc1ccccc1Sc1c(C2CC2)c(=O)[nH]c(=O)n1COCc1ccccc1`, with 30.1 µM.
As to `O=c1[nH]c(=O)n(COCc2ccccc2)c(Sc2cc(Cl)cc(Cl)c2)c1C1CC1`, the CC50 was 28.7 µM.
On the same count and under the same terms, then `O=c1[nH]c(=O)n(COCc2ccccc2)c(Sc2ccc(Cl)cc2Cl)c1C1CC1`, with 34 µM.
The same measure, in the same setting: then `O=c1[nH]c(=O)n(COCc2ccccc2)c(Sc2ccc(Cl)cc2)c1C1CC1`, with 30.2 µM.

Test system in the next data set: not listed separately
In words: Selectivity index, ratio of CC50 for cytotoxicity against human MT4 cells to EC50 for antiviral activity against wild type HIV1 IIIB infected in human MT4 cells. It is filed as toxicity, cell-based. As to conditions: read-out: Ratio CC50/EC50.
For the compound `Cc1ccc(Sc2c(C3CC3)c(=O)[nH]c(=O)n2COCc2ccccc2)c(C)c1`, the selectivity ratio was 7.
Still for that read-out and setting: then `O=c1[nH]c(=O)n(COCc2ccccc2)c(Sc2ccc(Br)cc2)c1C1CC1`, with above 4; and `COc1ccccc1Sc1c(C2CC2)c(=O)[nH]c(=O)n1COCc1ccccc1`, with 197.
As to `O=c1[nH]c(=O)n(COCc2ccccc2)c(Sc2ccccc2Br)c1C1CC1`, the selectivity ratio is 184.
The same measure, in the same setting: in the case of `Cc1ccccc1Sc1c(C2CC2)c(=O)[nH]c(=O)n1COCc1ccccc1` it was 203.
Same read-out and setting: then `O=c1[nH]c(=O)n(COCc2ccccc2)c(Sc2cc(Cl)cc(Cl)c2)c1C1CC1`, with 395.
The same measure, in the same setting: then `O=c1[nH]c(=O)n(COCc2ccccc2)c(Sc2ccc(Cl)cc2Cl)c1C1CC1`, with 6.
Take `O=c1[nH]c(=O)n(COCc2ccccc2)c(Sc2ccc(Cl)cc2)c1C1CC1`: the selectivity ratio was found to be 7.

A further data set has as its system Human immunodeficiency virus 1. Put plainly: Antiviral activity against HIV1 harboring K103 N mutant infected in human MT4 cells assessed as protection against virus-induced cytopathicity. It is filed as functional, organism-based. To be noted: Human immunodeficiency virus 1, MT4.
On to `Cc1ccc(Sc2c(C3CC3)c(=O)[nH]c(=O)n2COCc2ccccc2)c(C)c1`, for which the EC50 was above 32.2 µM.
On the same count and under the same terms, in the case of `O=c1[nH]c(=O)n(COCc2ccccc2)c(Sc2ccc(Br)cc2)c1C1CC1` it was above 25.9 µM; in that of `COc1ccccc1Sc1c(C2CC2)c(=O)[nH]c(=O)n1COCc1ccccc1`, at least 9.28 µM; in that of `O=c1[nH]c(=O)n(COCc2ccccc2)c(Sc2ccccc2Br)c1C1CC1`, 7.21 µM.
Still for that read-out and setting: in the case of `Cc1ccccc1Sc1c(C2CC2)c(=O)[nH]c(=O)n1COCc1ccccc1` it was above 7.96 µM.
The same measure, in the same setting: then `O=c1[nH]c(=O)n(COCc2ccccc2)c(Sc2cc(Cl)cc(Cl)c2)c1C1CC1`, with 2.74 µM; and `O=c1[nH]c(=O)n(COCc2ccccc2)c(Sc2ccc(Cl)cc2Cl)c1C1CC1`, with above 30 µM; and `O=c1[nH]c(=O)n(COCc2ccccc2)c(Sc2ccc(Cl)cc2)c1C1CC1`, with above 30.3 µM.

The subject of the next data set is Human immunodeficiency virus 1. In words: Antiviral activity against HIV1 harboring Y181C mutant infected in human MT4 cells assessed as protection against virus-induced cytopathicity. The class given is functional, organism-based. To be noted: Human immunodeficiency virus 1, MT4.
Regarding `Cc1ccc(Sc2c(C3CC3)c(=O)[nH]c(=O)n2COCc2ccccc2)c(C)c1`, the EC50 is above 32.2 µM.
Turning to `O=c1[nH]c(=O)n(COCc2ccccc2)c(Sc2ccc(Br)cc2)c1C1CC1`, the EC50 turned out to be 4.11 µM.
The same measure, in the same setting: then `COc1ccccc1Sc1c(C2CC2)c(=O)[nH]c(=O)n1COCc1ccccc1`, with 3.82 µM; and `O=c1[nH]c(=O)n(COCc2ccccc2)c(Sc2ccccc2Br)c1C1CC1`, with 2.66 µM; and `Cc1ccccc1Sc1c(C2CC2)c(=O)[nH]c(=O)n1COCc1ccccc1`, with 5.35 µM.
Take `O=c1[nH]c(=O)n(COCc2ccccc2)c(Sc2cc(Cl)cc(Cl)c2)c1C1CC1`: the EC50 is 1.71 µM.
The same measure, in the same setting: in the case of `O=c1[nH]c(=O)n(COCc2ccccc2)c(Sc2ccc(Cl)cc2Cl)c1C1CC1` it was at least 11.1 µM; in that of `O=c1[nH]c(=O)n(COCc2ccccc2)c(Sc2ccc(Cl)cc2)c1C1CC1`, 3.78 µM.

Another data set concerns Human immunodeficiency virus 1. Put plainly: Antiviral activity against HIV1 harboring Y188L mutant infected in human MT4 cells assessed as protection against virus-induced cytopathicity. It is filed as functional, organism-based. To be noted: Human immunodeficiency virus 1, MT4.
For the compound `Cc1ccc(Sc2c(C3CC3)c(=O)[nH]c(=O)n2COCc2ccccc2)c(C)c1`, the EC50 was above 32.2 µM.
Still for that read-out and setting: then `O=c1[nH]c(=O)n(COCc2ccccc2)c(Sc2ccc(Br)cc2)c1C1CC1`, with above 25.9 µM.
Still for that read-out and setting: then `COc1ccccc1Sc1c(C2CC2)c(=O)[nH]c(=O)n1COCc1ccccc1`, with above 33.6 µM; and `O=c1[nH]c(=O)n(COCc2ccccc2)c(Sc2ccccc2Br)c1C1CC1`, with above 27.2 µM; and `Cc1ccccc1Sc1c(C2CC2)c(=O)[nH]c(=O)n1COCc1ccccc1`, with above 30.1 µM.
Still for that read-out and setting: then `O=c1[nH]c(=O)n(COCc2ccccc2)c(Sc2cc(Cl)cc(Cl)c2)c1C1CC1`, with 7.7 µM.
Turning to `O=c1[nH]c(=O)n(COCc2ccccc2)c(Sc2ccc(Cl)cc2Cl)c1C1CC1`, the EC50 is above 30 µM.
On the same count and under the same terms, in the case of `O=c1[nH]c(=O)n(COCc2ccccc2)c(Sc2ccc(Cl)cc2)c1C1CC1` it was above 30.3 µM.

In another data set the test system is Human immunodeficiency virus 1. In words: Antiviral activity against HIV1 harboring E138K mutant infected in human MT4 cells assessed as protection against virus-induced cytopathicity. As to conditions: Human immunodeficiency virus 1, MT4. The class given is functional, organism-based.
In the case of `Cc1ccc(Sc2c(C3CC3)c(=O)[nH]c(=O)n2COCc2ccccc2)c(C)c1`, the EC50 was above 32.2 µM.
On the same count and under the same terms, in the case of `O=c1[nH]c(=O)n(COCc2ccccc2)c(Sc2ccc(Br)cc2)c1C1CC1` it was 9.8 µM.
On to `COc1ccccc1Sc1c(C2CC2)c(=O)[nH]c(=O)n1COCc1ccccc1`, for which the half-maximal effective concentration (EC50) was 0.83 µM.
For `O=c1[nH]c(=O)n(COCc2ccccc2)c(Sc2ccccc2Br)c1C1CC1`, the EC50 was 0.41 µM.
As for `Cc1ccccc1Sc1c(C2CC2)c(=O)[nH]c(=O)n1COCc1ccccc1`, the EC50 was determined as 0.89 µM.
Take `O=c1[nH]c(=O)n(COCc2ccccc2)c(Sc2cc(Cl)cc(Cl)c2)c1C1CC1`: the EC50 amounted to 0.45 µM.
With `O=c1[nH]c(=O)n(COCc2ccccc2)c(Sc2ccc(Cl)cc2Cl)c1C1CC1`, the EC50 is above 30 µM.
Still for that read-out and setting: in the case of `O=c1[nH]c(=O)n(COCc2ccccc2)c(Sc2ccc(Cl)cc2)c1C1CC1` it was above 30.3 µM.

A further data set addresses Human immunodeficiency virus type 1 reverse transcriptase (Human immunodeficiency virus 1, UniProt Q72547). In words: Inhibition of wild type HIV-1 reverse transcriptase assessed as inhibition of biotin deoxyuridine triphosphate incorporation into […].
Conditions: not given
With `Cc1ccc(Sc2c(C3CC3)c(=O)[nH]c(=O)n2COCc2ccccc2)c(C)c1`, the concentration for half-maximal inhibition (IC50) was determined as 5.39 µM.
`O=c1[nH]c(=O)n(COCc2ccccc2)c(Sc2ccc(Br)cc2)c1C1CC1`: the IC50 is 3.92 µM.
On the same count and under the same terms, in the case of `COc1ccccc1Sc1c(C2CC2)c(=O)[nH]c(=O)n1COCc1ccccc1` it was 0.56 µM.
Turning to `O=c1[nH]c(=O)n(COCc2ccccc2)c(Sc2ccccc2Br)c1C1CC1`, the 50% inhibitory concentration (IC50) worked out at 0.16 µM.
Same read-out and setting: then `Cc1ccccc1Sc1c(C2CC2)c(=O)[nH]c(=O)n1COCc1ccccc1`, with 0.3 µM; and `O=c1[nH]c(=O)n(COCc2ccccc2)c(Sc2cc(Cl)cc(Cl)c2)c1C1CC1`, with 0.11 µM.
Same read-out and setting: in the case of `O=c1[nH]c(=O)n(COCc2ccccc2)c(Sc2ccc(Cl)cc2Cl)c1C1CC1` it was 5.56 µM.
Still for that read-out and setting: in the case of `O=c1[nH]c(=O)n(COCc2ccccc2)c(Sc2ccc(Cl)cc2)c1C1CC1` it was 5.78 µM.

For the origin of these results see ChEMBL document CHEMBL5331066, “Structure-guided design of novel HEPT analogs with enhanced potency and safety: From Isopropyl-HEPTs to Cyclopropyl-HEPTs” (Eur J Med Chem, 2023).
